Where two headings read alike, the source gives them in different places.
Columns and labels:
[1] = target: TNKS1 (Homo sapiens, UniProt O95271); assay: TNKS1/PARP Biochemical Assay (TNKS1)
[2] = test system: Axin1 protein levels in DLD1 cells; assay: Western Blotting for Direct and Downstream Targets of TNKS Inhibitors: Axin 1; assay type: cell-based;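 note: compound exposure 20 to 22 hours before lysis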
Description: DLD1 cells were assayed for the effect of putative Tankyrase1/2 inhibitors on TNKS1/2, Axin1/2 and β-catenin protein levels. […] Reduction of nuclear accumulation of β-catenin and ultimately, reduction of β-catenin/TCF/LEF transcriptional activation of Wnt target genes should correlate with loss of Wnt-luc reporter signal in the Wnt reporter assay.
DLD1 cells were seeded in a 6-well dish at 10000 cells/well in DMEM supplemented with 10% FBS. […] After washing in TBS-T, the membrane was probed with a species specific secondary antibody conjugated to HRP (1:5000, Pierce/ThermoFisher), washed again in TBS-T and reacted with chemiluminescent detection reagents (ECL, GE Healthcare, cat. no. RPN2109) followed by exposure to X-ray film (FujiFilm XR).

[3] = test system: DLD1 cells; assay: Long-Term Clonogenic Assay (DLD1 cells); assay type: cell-based
Description: Clonogenic Inhibition in DLD1 or HT55 Cells
In order to determine the efficacy of chronic dosing of putative TNKS inhibitors, long term clonogenic or ‘colony formation’ assays were carried out. This included the sparse seeding of cells in a 6-well dish followed by continuous dosing of cells over 12-14 days (depending on relative cell growth). Appropriate cell lines (DLD1 or HT55) were seeded at 500 cells/well in a 6-well dish in DMEM supplemented with FBS. […] Dosages were carried out in triplicate. Cell media containing compound or DMSO only was replenished every 48 hours. Termination of the assay included the fixation of cells with trichlororacetic acid (1 mL, 10% (v/v), Sigma Aldrich, cat. no. T6399) and incubation for 16 hours at 4° C. Fixed cells were then washed with water, allowed to dry and stained with sulforhodamine B solution (sulforhodamine B 0.05% (w/v), Sigma Aldrich cat. no. S1402, acetic acid 1% (v/v), Fisher Scientific, cat. no. A/0400/PB17)) for 12 hours at room temperature. The stain was then removed and the cells washed copiously with aqueous acetic acid (1% v/v) and allowed to dry.
The data was normalised to the DMSO control and was expressed as surviving fraction as a function of inhibitor dose.

[4] = test system: TNKS stabilisation in HeLa, HT1080, HTC75 cells
Description: Cells were seeded, dosed and whole cell lysates were isolated and western blotted as described above. Primary antibodies included TNKS (1:1000, Santa Cruz Biotech, cat. no. SC8377).

[5] = test system: Wnt activity in DLD1-Wnt-Luc cells; assay: Wnt-Luciferase Reporter Assay

| SMILES | IC50 [1] [nM] | stabilize Axin1 (Western blotting) [2] | Clonogenic SF50 (DLD1) [3] [µM] | stabilize TNKS (Western blotting) [4] | IC50 ([5]; read-out: Wnt IC50) [nM] | IC50 ([5]; read-out: Wnt IC50, DLD1-Wnt-Luc cells) [nM] |
| --- | --- | --- | --- | --- | --- | --- |
| CN1CCN(c2ccc(-c3cc4c(Cl)cccc4c(=O)[nH]3)cn2)CC1 [IQ-002-1] | < 50 | stabilize Axin1 | < 2 | stabilize TNKS |  |  |
| Cc1cccc2c(=O)[nH]c(-c3ccc(N4CCN(C)CC4)nc3)cc12 [IQ-003] | 21 | stabilize Axin1 | < 2 | stabilize TNKS | 12 |  |
| O=c1[nH]c(-c2ccc(N3CCNCC3)nc2)cc2c(Cl)cccc12 [IQ-027] | < 50 | stabilize Axin1 |  | stabilize TNKS |  |  |
| Cc1cccc2c(=O)[nH]c(-c3ccc(CN4CCCC4)cc3)cc12 [IQ-036] | < 50 | stabilize Axin1 |  | stabilize TNKS |  |  |
| Cc1cccc2c(=O)[nH]c(-c3ccc(CN4CCCCC4)cc3)cc12 [IQ-037] | < 50 | stabilize Axin1 |  | stabilize TNKS |  |  |
| Cc1cccc2c(=O)[nH]c(-c3ccc(CN4CCN(C)CC4)cc3)cc12 [IQ-038] |  |  | < 2 | stabilize TNKS |  |  |
| Cc1cccc2c(=O)[nH]c(-c3ccc(CN4CCC(N(C)C)CC4)cc3)cc12 [IQ-053] |  |  |  | stabilize TNKS |  |  |
| Cc1cccc2c(=O)[nH]c(-c3ccc(C(=O)N(C)C4CCN(C)CC4)cc3)cc12 [IQ-100, N-Methyl-4-(5-methyl-1-oxo-1,2-dihydro-isoquinolin-3-yl)-N-(1-methyl-piperidin-4-yl)-benzamide] | < 20 | stabilize Axin1 |  | stabilize TNKS |  |  |
| COCCN1CCN(C(=O)c2ccc(-c3cc4c(C)cccc4c(=O)[nH]3)cc2)CC1 [IQ-102] | < 20 | stabilize Axin1 | < 2 | stabilize TNKS |  |  |
| CNCCOc1ccc(-c2cc3c(C)cccc3c(=O)[nH]2)cc1 [IQ-127, 5-Methyl-3-[4-(2-methylamino-ethoxy)-phenyl]-2H-isoquinolin-1-one] | < 50 | stabilize Axin1 | < 2 | stabilize TNKS |  |  |
| Cc1cccc2c(=O)[nH]c(-c3ccc(OCCN(C)C)cc3)cc12 [IQ-130] | 16 | stabilize Axin1 |  | stabilize TNKS | 165 |  |
| Cc1cccc2c(=O)[nH]c(-c3ccc(OCCN4CCOCC4)cc3)cc12 [IQ-133] | < 500 | stabilize Axin1 |  | stabilize TNKS |  |  |
| CC(C)(C)OC(=O)N1CCN(Cc2ccc(-c3cc4c(Br)cccc4c(=O)[nH]3)cc2)CC1 [IQ-149, 4-[4-(5-Bromo-1-oxo-1,2-dihydro-isoquinolin-3-yl)-benzyl]-piperazine-1-carboxylic acid tert-butyl ester] | < 50 |  | < 2 |  |  | < 5000 |

Reference: US9193689B2, “3-aryl-5-substituted-isoquinolin-1-one compounds and their therapeutic use” (INSTITUTE OF CANCER RESEARCH: ROYAL CANCER HOSPITAL (THE), priority 2012, dated 2015)
